Several values for one entry are separate records, joined by “and”; a condition that tells them apart may be missing. Equal values may be shown once.
Key:
[1] = test system: Urease; experiment: Urease activity of urea amended soil, 38° C., 24 hrs; type: biochemical
Method: Urease activity: Five grams (5 g) oven-dry soil is treated with 5 ml of aqueous urea solution (1000 ug/g soil), with or without the test compound, and incubated in 65 ml screw-capped glass bottles at 38° C. for 24 hrs. Three replicates of each treatment are established. Phenylphosphorodiamide (PPD) is used as a urease inhibitor for comparison with Maduramicin monoammonium salt. Urea remaining is determined after extracting the soil for 60 minutes (with shaking) with 50 ml of 2M KCl containing 0.5 ug/ml of phenylmercuric acetate and filtering the soil suspension. Urea in the extract is determined colorimetrically (Douglas & Bremner, 1970). The percentage inhibition is calculated from (A-B)/(C-B) X 100-% inhibition; where A=the amount of urea found after incubation with the compound, B=the amount of urea found in the non-treated soil, and C=the amount of urea added.

[2] = test system: corn (Dekalb T2000, B73×LH 38); experiment: Field evaluation: yield of corn, silt loam location; type: in vivo
From the text: (§1) Field Evaluation: Field evaluations are based on the N content of corn leaf tissue and grain yield utilizing two soil types. Replicate (4X) field plots are established at two different locations, one having (I) silt loam soil and one (II) with sandy loam soil. These soils had been previously cropped to non-fertilized corn to reduce the level of residual N. Maduramicin monoammonium salt is applied (0.25, 0.125, 0.07 ppm) with NH3 (84 or 168 kg N/ha) through a "downstream" by an injection system into silt loam plots. Nitrapyrin (0.25 ppm=0.56 kg a.i./ha), nitrogen checks, benzyl alcohol (1.16L/ha) (BA) and a O nitrogen check are included for comparison. Individual replicate plot sizes are 3.04M×22.8M (4, 76-cm corn rows×22.8M long) Anhydrous ammonia are injected on 76-cm centers.
(§2) Urea, treated or non-treated with Maduramicin monoammonium salt is broadcast on the surface of sandy loam plots. Plots are then planted with corn the day following treatment. Dekalb T2000 is planted 10 May on silt loam plots and Pioneer 3352 is planted 11 May in sandy loam plots.
(§3) Corn ear leaf tissues collected at silking on silt loam plots or 60 days post silking (on silt loam and sandy loam plots) are collected from each plot and assayed for total N (AOAC procedures). Grain yields are determined by harvesting the two center rows×15.2 m of each plot.

[3] = test system: Nitrobacter spp.; experiment: Nitrite nitrogen in ammonium amended soil incubated at 25° C.; conditions: soil 25° C., 200 ppm N
Method: Determination of nitrite nitrogen and nitrate nitrogen in soil prepared in Example 1 above, which is amended with 200 ppm of nitrogen as aqueous ammonium sulfate, […], is determined using the nitrite and nitrate analysis of the American Organization of Analytical Chemists (AOAC pp. 653-655).

[4] = test system: Nitrosomonas spp.; experiment: Nitrification of ammonium in soil incubated at 25° C. (ammonium recovery, nitrate accumulation); conditions: soil 25° C.; for Concentration of nitrate nitrogen / Recovery of Ammonium Nitrogen: 200 ppm N
Method: In these evaluations, one hundred grams (100 g) of oven dry, silt loam field soil with low residual nitrogen is added to a 6×12 cm screw-capped glass jar for each sampling date to provide an optimum environment for nitrification.
Two replicates of each treatment-sampling date are established. The soil is adjusted to 50% water saturation with an aqueous solution of ammonium sulfate at 200 ppm N and the chemical to be tested as a nitrification inhibitor at rates of from 0.10 to 0.50 ppm.
Incubation is at either 25° C. or 38° C. for 0, 1, 2, 4, 7, 9, 12, 16 or 20 weeks. Inorganic N is extracted by adding 2M KCl (10:1 v/w) and shaking for one hour, allowing settling for fifteen minutes. A 10 ml aliquot from the supernatant is assayed for ammonium, nitrite and nitrate by standard steam distillation methods (AOAC, pp. 653-655). Nitrapyrin (0.5 ppm) is used as a nitrification inhibitor for comparison. Benzyl alcohol, acetone, and a non-N amended soil are run as controls and as a check on mineralization.
Nitrification: Ammonium recovery and nitrate accumulation are indicative of nitrification, and data obtained with test compounds are reported in Tables I and II.

[5] = test system: corn (Pioneer 3352); experiment: Field evaluation: yield of corn, sandy loam plots; type: in vivo; conditions: sandy loam
From the text: as §1
Plots are then planted with corn the day following treatment. Dekalb T2000 is planted 10 May on silt loam plots and Pioneer 3352 is planted 11 May in sandy loam plots.
as §3

[6] = test system: corn (Dekalb T2000, B73×LH 38); experiment: Field evaluation: corn ear leaf tissue nitrogen, silt loam plots; type: in vivo; conditions: for Corn Leaf Tissue Analysis (total N): ear leaf at silking
From the text: as §1, §2, §3

[7] = test system: Nitrabacter; experiment: Nitrite in ammonium amended field soil incubated at 38° C.; conditions: 0.50 ppm, soil 38° C., 200 ppm N
Method: (§4) Determination of Nitrification Inhibition of Soil amended with 200 ppm of nitrogen as ammonium sulfate and 0.5 ppm of Nitrapyrin or 0.5 ppm of Maduramicin, monoammonium salt.
(§5) Soil samples prepared as described in Example 1 above are incubated at 38° C. for 20 weeks. Samples are taken at intervals during the 20 week period, extracted with 2M KCl (10:1 v/w), and assayed for ammonium nitrite and nitrate by standard steam distillation methods.

[8] = test system: Nitrosomonos; experiment: Nitrification of ammonium amended field soil incubated at 38° C. (ammonium recovery, nitrate); conditions: 0.50 ppm, soil 38° C., 200 ppm N
Method: as §4, §5

Structure (SMILES): NP(N)(=O)Oc1ccccc1 [PPD, Phenylphosphorodiamide]
- % INHIBITION (urease) ([1]; (A-B)/(C-B) X 100, urea 1000 ug/g soil): 63%
- AVERAGE amount of urea remaining ([1]; average of 3 replicates, urea 1000 ug/g soil): 769 µg/g
- AMOUNT REMAINING (urea) ([1]; single replicates, urea 1000 ug/g soil): 755 µg/g and 767 µg/g and 770 µg/g

Structure (SMILES): OCc1ccccc1 [Benzyl Alcohol]
- AVERAGE YIELD 4-REPLICATES ([2]; N 168 kg/ha, chemical 1.2 l/ha): 140.9 HECTOLITERS/HECTARE
- Concentration of nitrite nitrogen ([3]; 5%, week 0): 6 ppm
- Concentration of nitrite nitrogen ([3]; 5%, week 1): 5 ppm
- Concentration of nitrite nitrogen ([3]; 5%, week 2): 5 ppm
- Concentration of nitrite nitrogen ([3]; 5%, week 4): 6 ppm
- Concentration of nitrite nitrogen ([3]; 5%, week 7): 3 ppm
- Concentration of nitrite nitrogen ([3]; 5%, week 9): -1 ppm
- Concentration of nitrite nitrogen ([3]; 5%, week 12): 5 ppm
- Concentration of nitrite nitrogen ([3]; 5%, week 16): 1 ppm
- Concentration of nitrite nitrogen ([3]; 5%, week 20): 27 ppm
- Effect on nitrification, in words ([4]; 5%): markedly inhibited nitrification throughout the incubation period
- Concentration of nitrate nitrogen ([4]; 5%, week 0): 19 PPM
- Recovery of Ammonium Nitrogen ([4]; 5%, week 0): 194 PPM
- Concentration of nitrate nitrogen ([4]; 5%, week 1): 21 PPM
- Recovery of Ammonium Nitrogen ([4]; 5%, week 1): 163 PPM
- Concentration of nitrate nitrogen ([4]; 5%, week 2): 16 PPM
- Recovery of Ammonium Nitrogen ([4]; 5%, week 2): 163 PPM
- Concentration of nitrate nitrogen ([4]; 5%, week 4): 20 PPM
- Recovery of Ammonium Nitrogen ([4]; 5%, week 4): 168 PPM
- Concentration of nitrate nitrogen ([4]; 5%, week 7): 15 PPM
- Recovery of Ammonium Nitrogen ([4]; 5%, week 7): 164 PPM
- Concentration of nitrate nitrogen ([4]; 5%, week 9): 99 PPM
- Recovery of Ammonium Nitrogen ([4]; 5%, week 9): 41 PPM
- Concentration of nitrate nitrogen ([4]; 5%, week 12): 19 PPM
- Recovery of Ammonium Nitrogen ([4]; 5%, week 12): 163 PPM
- Concentration of nitrate nitrogen ([4]; 5%, week 16): 27 PPM
- Recovery of Ammonium Nitrogen ([4]; 5%, week 16): 169 PPM
- Concentration of nitrate nitrogen ([4]; 5%, week 20): 20 PPM
- Recovery of Ammonium Nitrogen ([4]; 5%, week 20): 139 PPM
- AVERAGE YIELD 4-REPLICATES ([5]; N 168 kg/ha as NH3, chemical 1.2 l/ha): 165.3 HECTOLITERS/HECTARE
- Corn Leaf Tissue Analysis (total N) ([6]; 1.1 l/ha, NH3 168 kg N/ha): 271 10^2 ug/g

Structure (SMILES): Clc1cccc(C(Cl)(Cl)Cl)n1 [Nitrapyrin]
- AVERAGE YIELD 4-REPLICATES ([2]; N 84 kg/ha, chemical 0.56 kg/ha): 133.4 HECTOLITERS/HECTARE
- AVERAGE YIELD 4-REPLICATES ([2]; N 168 kg/ha, chemical 0.56 kg/ha): 148.8 HECTOLITERS/HECTARE
- Concentration of nitrite nitrogen ([3]; 0.50 ppm, week 0): 6 ppm
- Concentration of nitrite nitrogen ([3]; 0.50 ppm, week 1): 6 ppm
- Concentration of nitrite nitrogen ([3]; 0.50 ppm, week 2): 3 ppm
- Concentration of nitrite nitrogen ([3]; 0.50 ppm, week 4): 5 ppm
- Concentration of nitrite nitrogen ([3]; 0.50 ppm, week 7): -1 ppm
- Concentration of nitrite nitrogen ([3]; 0.50 ppm, week 9): 8 ppm
- Concentration of nitrite nitrogen ([3]; 0.50 ppm, week 12): -10 ppm
- Concentration of nitrite nitrogen ([3]; 0.50 ppm, week 16): 15 ppm
- Concentration of nitrite nitrogen ([3]; 0.50 ppm, week 20): 34 ppm
- Nitrite, reported as nitrogen ([7]; week 0): 6 ppm
- Nitrite, reported as nitrogen ([7]; week 1): 3 ppm
- Nitrite, reported as nitrogen ([7]; week 2): 12 ppm
- Nitrite, reported as nitrogen ([7]; week 4): 9 ppm
- Nitrite, reported as nitrogen ([7]; week 7): -27 ppm
- Nitrite, reported as nitrogen ([7]; week 9): 14 ppm
- Nitrite, reported as nitrogen ([7]; week 12): 14 ppm
- Nitrite, reported as nitrogen ([7]; week 16): 7 ppm
- Nitrite, reported as nitrogen ([7]; week 20): 27 ppm
- Nitrification (percent nitrified) ([4]; 0.50 ppm, by the 16th week): 65%
- Nitrification (percent nitrified) ([4]; 0.50 ppm, by the 20th week): 87%
- Time through which nitrification is delayed or inhibited ([4]; 0.5 ppm): 12 weeks
- Concentration of nitrate nitrogen ([4]; 0.50 ppm, week 0): 18 PPM
- Recovery of Ammonium Nitrogen ([4]; 0.50 ppm, week 0): 193 PPM
- Concentration of nitrate nitrogen ([4]; 0.50 ppm, week 1): 11 PPM
- Recovery of Ammonium Nitrogen ([4]; 0.50 ppm, week 1): 155 PPM
- Concentration of nitrate nitrogen ([4]; 0.50 ppm, week 2): 23 PPM
- Recovery of Ammonium Nitrogen ([4]; 0.50 ppm, week 2): 177 PPM
- Concentration of nitrate nitrogen ([4]; 0.50 ppm, week 4): 21 PPM
- Recovery of Ammonium Nitrogen ([4]; 0.50 ppm, week 4): 185 PPM
- Concentration of nitrate nitrogen ([4]; 0.50 ppm, week 7): 25 PPM
- Recovery of Ammonium Nitrogen ([4]; 0.50 ppm, week 7): 188 PPM
- Concentration of nitrate nitrogen ([4]; 0.50 ppm, week 9): 39 PPM
- Recovery of Ammonium Nitrogen ([4]; 0.50 ppm, week 9): 174 PPM
- Concentration of nitrate nitrogen ([4]; 0.50 ppm, week 12): 49 PPM
- Recovery of Ammonium Nitrogen ([4]; 0.50 ppm, week 12): 184 PPM
- Concentration of nitrate nitrogen ([4]; 0.50 ppm, week 16): 148 PPM
- Recovery of Ammonium Nitrogen ([4]; 0.50 ppm, week 16): 70 PPM
- Concentration of nitrate nitrogen ([4]; 0.50 ppm, week 20): 163 PPM
- Recovery of Ammonium Nitrogen ([4]; 0.50 ppm, week 20): 25 PPM
- AVERAGE YIELD 4-REPLICATES ([5]; N 84 kg/ha as NH3, chemical 0.56 kg/ha): 160.1 HECTOLITERS/HECTARE
- AVERAGE YIELD 4-REPLICATES ([5]; N 168 kg/ha as NH3, chemical 0.56 kg/ha): 167.0 HECTOLITERS/HECTARE
- Corn Leaf Tissue Analysis (total N) ([6]; inhibitor 0.56 kg/ha, NH3 84 kg N/ha): 232 10^2 ug/g
- Corn Leaf Tissue Analysis (total N) ([6]; inhibitor 0.56 kg/ha, NH3 168 kg N/ha): 291 10^2 ug/g
- More nitrogen in leaf tissue than control plots with similar nitrogen ([6]; silt loam plots): 15-25%
- Ammonium Recovery, reported as nitrogen ([8]; week 0): 194 ppm
- Nitrate, reported as nitrogen ([8]; week 0): 20 ppm
- Ammonium Recovery, reported as nitrogen ([8]; week 1): 188 ppm
- Nitrate, reported as nitrogen ([8]; week 1): 18 ppm
- Ammonium Recovery, reported as nitrogen ([8]; week 2): 195 ppm
- Nitrate, reported as nitrogen ([8]; week 2): 15 ppm
- Ammonium Recovery, reported as nitrogen ([8]; week 4): 200 ppm
- Nitrate, reported as nitrogen ([8]; week 4): 22 ppm
- Ammonium Recovery, reported as nitrogen ([8]; week 7): 179 ppm
- Nitrate, reported as nitrogen ([8]; week 7): 48 ppm
- Ammonium Recovery, reported as nitrogen ([8]; week 9): 141 ppm
- Nitrate, reported as nitrogen ([8]; week 9): 79 ppm
- Ammonium Recovery, reported as nitrogen ([8]; week 12): 125 ppm
- Nitrate, reported as nitrogen ([8]; week 12): 114 ppm
- Ammonium Recovery, reported as nitrogen ([8]; week 16): 127 ppm
- Nitrate, reported as nitrogen ([8]; week 16): 126 ppm
- Ammonium Recovery, reported as nitrogen ([8]; week 20): 91 ppm
- Nitrate, reported as nitrogen ([8]; week 20): 128 ppm

— patent US4746349A, “Method and compositions for suppressing the nitrification of ammonium in plant growth medium” (American Cyanamid Company, priority 1986, dated 1988)
